In patent US20240115745A1, “COMPOUNDS COMPRISING A FIBROBLAST ACTIVATION PROTEIN LIGAND AND USE THEREOF” (3B PHARMACEUTICALS GMBH, priority 2021, published 2024):
Where two headings read alike, the source gives them in different places. *1 amine or outer side, *2 acyl side, *3 side chain or, on linkers, in order; H or OH if unused. Where a SMILES comes first, the peptide text is derived from it. Bridges are numbered along the chain shown (N, C = ends). [ ]: non-standard residue; d: D form. The star is where a group is joined. X4 = O=C(O)CN1CCN(CC(=O)O)CCN(CC(=O)NCCCOCCOCCOCCCN*)CCN(CC(=O)O)CC1; X1 = NC(=O)CC[C@H](N[*:1])C(=O)C[C@@H](Cc1ccccc1)C(=O)[*:2]; X11 = O=C(O)CN1CCN(CC(=O)O)CCN([C@H](CCC(=O)*)C(=O)O)CC1; DOTA = O=C(O)CN1CCN(CC(=O)O)CCN(CC(=O)*)CCN(CC(=O)O)CC1; X2 = O=C1NC(=O)C([*:3])=C1CC[C@H](N[*:1])C(=O)[*:2]; Maleimide(3,4-diyl) = O=C1NC(=O)C([*:2])=C1[*:1]; X9 = O=C(C1CCC[C@H]1C(=O)[*:2])[C@@H]1CCCN1[*:1]; X8 = NCCNCC(CNCCN)C(=O)NCCCOCCOCCOCCCN*; Suc = O=C(CCC(=O)[*:2])[*:1]; hCys = N[C@@H](CCS)C(=O)O; Nle = CCCC[C@H](N)C(=O)O; X3 = NCCNCC(CNCCN)C(=O)*; Hexanoyl = CCCCCC(=O)*; AEEA = NCCOCCOCC(=O)O; βAla = NCCC(=O)O

Key:
[1] = target: T1, FAP-expressing human WI-38 fibroblasts (Homo sapiens, UniProt Q12884); experiment: Competitive FACS binding assay;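 note: flow cytometry read-out of median Cy5 fluorescence on the cells, plotted versus test compound concentration, with IC50 derived by four-parameter logistic curve fitting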
T1 construct: FAP-expressing human WI-38 fibroblasts (ECACC) were cultured in EMEM; host or cells: WI-38 human fibroblasts
T1 sequence (Q12884 whole entry): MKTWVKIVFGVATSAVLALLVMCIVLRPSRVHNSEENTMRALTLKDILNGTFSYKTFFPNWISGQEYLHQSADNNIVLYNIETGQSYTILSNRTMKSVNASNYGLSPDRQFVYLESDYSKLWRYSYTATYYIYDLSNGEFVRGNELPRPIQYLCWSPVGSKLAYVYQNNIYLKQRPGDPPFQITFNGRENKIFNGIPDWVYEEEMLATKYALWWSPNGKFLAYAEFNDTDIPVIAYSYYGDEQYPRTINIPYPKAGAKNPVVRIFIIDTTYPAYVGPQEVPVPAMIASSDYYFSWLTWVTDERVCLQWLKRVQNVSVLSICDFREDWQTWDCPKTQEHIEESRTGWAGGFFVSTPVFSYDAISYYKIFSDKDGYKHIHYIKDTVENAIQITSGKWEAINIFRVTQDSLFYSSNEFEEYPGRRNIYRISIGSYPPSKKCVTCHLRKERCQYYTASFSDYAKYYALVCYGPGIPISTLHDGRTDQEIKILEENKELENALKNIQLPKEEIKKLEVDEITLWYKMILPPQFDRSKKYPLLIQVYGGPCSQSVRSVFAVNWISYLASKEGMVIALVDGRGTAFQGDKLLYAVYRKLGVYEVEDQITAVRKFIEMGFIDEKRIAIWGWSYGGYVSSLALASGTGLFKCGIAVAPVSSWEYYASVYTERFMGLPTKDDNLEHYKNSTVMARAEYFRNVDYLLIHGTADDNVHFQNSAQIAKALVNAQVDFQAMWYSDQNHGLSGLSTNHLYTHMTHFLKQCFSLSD

Recombinant human FAP = target: T2, Recombinant human FAP (Homo sapiens, UniProt Q12884); experiment: FRET-based FAP protease activity assay; format: biochemical
T2 construct: purchased R&D systems 3715-SE
T2 sequence (Q12884 26-760 limits assumed): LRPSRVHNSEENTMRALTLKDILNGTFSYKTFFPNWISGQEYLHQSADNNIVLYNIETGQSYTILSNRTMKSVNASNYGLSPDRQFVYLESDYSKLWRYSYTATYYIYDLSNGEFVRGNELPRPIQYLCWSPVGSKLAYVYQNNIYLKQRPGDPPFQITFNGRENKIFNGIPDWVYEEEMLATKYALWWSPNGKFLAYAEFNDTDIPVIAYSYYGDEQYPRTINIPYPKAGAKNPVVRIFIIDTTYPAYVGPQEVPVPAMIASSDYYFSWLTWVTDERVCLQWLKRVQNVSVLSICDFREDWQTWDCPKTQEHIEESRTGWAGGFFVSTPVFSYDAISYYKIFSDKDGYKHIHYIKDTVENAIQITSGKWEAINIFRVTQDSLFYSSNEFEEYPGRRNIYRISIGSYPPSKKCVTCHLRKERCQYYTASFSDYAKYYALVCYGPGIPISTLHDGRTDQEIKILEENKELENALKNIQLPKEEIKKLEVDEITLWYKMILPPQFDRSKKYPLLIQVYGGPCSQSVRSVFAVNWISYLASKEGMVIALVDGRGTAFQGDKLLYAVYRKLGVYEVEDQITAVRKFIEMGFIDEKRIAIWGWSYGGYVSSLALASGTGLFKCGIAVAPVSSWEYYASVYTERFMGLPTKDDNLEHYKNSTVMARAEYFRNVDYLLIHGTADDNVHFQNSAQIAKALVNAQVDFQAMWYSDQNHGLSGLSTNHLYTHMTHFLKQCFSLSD

[2] = competition with 3 nM Cy5-labeled compound, WI-38 fibroblasts, 4° C., 1 hour, read-out: pIC50 Category (FACS) (converted)
[3] = recombinant human FAP, FRET-peptide substrate, 37° C., read-out: pIC50 Category (Activity) (converted)

IC50 [1, 2]	IC50 (Recombinant human FAP; [3])	IC50 ([1]; read-out: pIC50 (highest activity categories, FACS binding) (converted))	IC50 (Recombinant human FAP; read-out: pIC50 (highest activity categories, FAP activity) (converted))	Structure (SMILES)
< 100 nM	< 100 nM			CCCC[C@H](NC(=O)CCC(=O)NCCCOCCOCCOCCCNC(=O)CN1CCN(CC(=O)O)CCN(CC(=O)O)CCN(CC(=O)O)CC1)C(=O)N[C@H]1CSSC[C@@H](C(=O)N[C@@H](CC(=O)O)C(=O)N[C@@H](Cc2c[nH]cn2)C(=O)N[C@@H](Cc2ccccc2)C(=O)N[C@@H](CCCNC(=N)N)C(=O)N[C@@H](CC(=O)O)C(N)=O)NC(=O)[C@H](Cc2ccccc2)NC(=O)[C@H](CCC(=O)O)NC(=O)[C@H]([C@@H](C)O)NC(=O)[C@@H]2CCCN2C(=O)[C@@H]2CCCN2C1=O [Compound 1006, DOTA-Ttds-Nle-[Cys-Pro-Pro-Thr-Glu-Phe-Cys]-Asp-His-Phe-Arg-Asp-NH2] ({X4-Suc}-[Nle]CPPTEFCDHFRD-NH2; disulfide 2-8)
< 100 nM	< 100 nM			CCCCCC(=O)N[C@H]1CCSSCC[C@@H](C(=O)N[C@@H](CC(=O)O)C(N)=O)NC(=O)[C@H](Cc2ccccc2)NC(=O)[C@H](CCC(N)=O)NC(=O)[C@H]([C@@H](C)O)NC(=O)[C@@H]2CCCN2C(=O)[C@@H]2CCCN2C1=O [Compound 2002, Hex-[Hcy-Pro-Pro-Thr-Gln-Phe-Hcy]-Asp-NH2] (Hexanoyl-[hCys]PPTQF[hCys]D-NH2; disulfide 1-7)
< 100 nM	< 100 nM			CCCC[C@H](NC(=O)CCC(=O)NCCCOCCOCCOCCCNC(=O)C(CNCCN)CNCCN)C(=O)N[C@H]1CSSC[C@@H](C(=O)NCCC(=O)O)NC(=O)[C@H](Cc2ccccc2)NC(=O)[C@H](CCC(N)=O)NC(=O)[C@H]([C@@H](C)O)NC(=O)[C@@H]2CCCC2C(=O)[C@@H]2CCCN2C1=O (stereo partly drawn) [Compound 1019, N4Ac-Ttds-Nle-[Cys-Pro-Pro-Thr-Gln-Phe-Cys]-Bal-OH] ({X8-Suc}-[Nle]C[X9]TQFC[βAla]-OH; disulfide 2-7)
< 100 nM	< 100 nM			CCCCCC(=O)N[C@H]1CSSC[C@@H](C(=O)N[C@@H](CC(=O)O)C(=O)N[C@@H](Cc2c[nH]cn2)C(=O)N[C@@H](Cc2ccccc2)C(=O)N[C@@H](CCCNC(=N)N)C(=O)N[C@@H](CC(=O)O)C(N)=O)NC(=O)[C@H](Cc2ccccc2)NC(=O)[C@H](CCC(=O)O)NC(=O)[C@H]([C@@H](C)O)NC(=O)[C@@H]2CCCN2C(=O)[C@@H]2CCCN2C1=O [Compound 1002, Hex-[Cys-Pro-Pro-Thr-Glu-Phe-Cys]-Asp-His-Phe-Arg-Asp-NH2] (HELM PEPTIDE1{[CCCCCC(=O)[*:2]].C.P.P.T.E.F.C.D.H.F.R.D.[am]}$PEPTIDE1,PEPTIDE1,2:R3-8:R3$$$V2.0)
< 100 nM	< 100 nM			CCCCCC(=O)N[C@H]1CSSC[C@@H](C(=O)N[C@@H](CC(=O)O)C(=O)N[C@@H](CCCCNC(=O)CC[C@H](C(=O)O)N2CCN(CC(=O)O)CCN(CC(=O)O)CC2)C(N)=O)NC(=O)[C@H](Cc2ccccc2)NC(=O)[C@H](CCC(=O)O)NC(=O)[C@H]([C@@H](C)O)NC(=O)[C@@H]2CCCN2C(=O)[C@@H]2CCCN2C1=O [Compound 1020, Hex-[Cys-Pro-Pro-Thr-Glu-Phe-Cys]-Asp-Lys(NODAGA)-NH2] (Hexanoyl-CPPTEFCDK(X11)-NH2; disulfide 1-7)
< 100 nM	< 100 nM			CCCC[C@H](NC(=O)CCC(=O)NCCCOCCOCCOCCCNC(=O)C(CNCCN)CNCCN)C(=O)N[C@H]1CSC2=C(SC[C@@H](C(=O)NCCC(=O)O)NC(=O)[C@H](Cc3ccccc3)NC(=O)[C@H](CCC(N)=O)NC(=O)[C@H]([C@@H](C)O)NC(=O)[C@@H]3CCCN3C(=O)[C@@H]3CCCN3C1=O)C(=O)NC2=O [Compound 2022, N4Ac-Ttds-Nle-[Cys(mli)-Pro-Pro-Thr-Gln-Phe-Cys]-Bal-OH]
< 100 nM	< 100 nM			CCCC[C@H](NC(=O)CCC(=O)NCCCOCCOCCOCCCNC(=O)CN1CCN(CC(=O)O)CCN(CC(=O)O)CCN(CC(=O)O)CC1)C(=O)N[C@H]1CSSC[C@@H](C(=O)N[C@@H](CC(=O)O)C(N)=O)NC(=O)[C@H](Cc2ccccc2)NC(=O)[C@H](CCC(=O)O)NC(=O)[C@H]([C@@H](C)O)NC(=O)[C@@H]2CCCN2C(=O)[C@@H]2CCCN2C1=O [Compound 1003, DOTA-Ttds-Nle-[Cys-Pro-Pro-Thr-Glu-Phe-Cys]-Asp-NH2] ({X4-Suc}-[Nle]CPPTEFCD-NH2; disulfide 2-8)
< 100 nM	< 100 nM	< 100 nM	< 100 nM	CCCC[C@H](NC(=O)COCCOCCNC(=O)CN1CCN(CC(=O)O)CCN(CC(=O)O)CCN(CC(=O)O)CC1)C(=O)N[C@H]1CSC2=C(SC[C@@H](C(=O)N[C@@H](CC(=O)O)C(N)=O)NC(=O)[C@H](Cc3ccccc3)CC(=O)[C@H](CCC(N)=O)NC(=O)[C@H]([C@@H](C)O)NC(=O)[C@@H]3CCCN3C(=O)[C@@H]3CCCN3C1=O)C(=O)NC2=O [Compound 2004, DOTA-O2Oc-Nle-[Cys(mli)-Pro-Pro-Thr-Gln-Phe-Cys]-Asp-NH2] ({DOTA-AEEA}-[Nle]CPPT[X1]CD-NH2; linker 2-7 via Maleimide(3,4-diyl))
< 100 nM	< 100 nM			CCCCCC(=O)N[C@H]1CSSC[C@@H](C(=O)N[C@@H](CC(=O)O)C(=O)N[C@@H](CCCCNC(=O)C(CNCCN)CNCCN)C(N)=O)NC(=O)[C@H](Cc2ccccc2)NC(=O)[C@H](CCC(=O)O)NC(=O)[C@H]([C@@H](C)O)NC(=O)[C@@H]2CCCN2C(=O)[C@@H]2CCCN2C1=O [Compound 1021, Hex-[Cys-Pro-Pro-Thr-Glu-Phe-Cys]-Asp-Lys(N4Ac)—NH2] (Hexanoyl-CPPTEFCDK(X3)-NH2; disulfide 1-7)
< 100 nM	< 100 nM			CCCCCC(=O)N[C@H]1CSC2=C(CC[C@@H](C(=O)N[C@@H](CC(=O)O)C(=O)N[C@@H](CCCCNC(=O)CC[C@H](C(=O)O)N3CCN(CC(=O)O)CCN(CC(=O)O)CC3)C(N)=O)NC(=O)[C@H](Cc3ccccc3)NC(=O)[C@H](CCC(N)=O)NC(=O)[C@H]([C@@H](C)O)NC(=O)[C@@H]3CCCN3C(=O)[C@@H]3CCCN3C1=O)C(=O)NC2=O [Compound 2023, Hex-[Cys(mli)-Pro-Pro-Thr-Gln-Phe-Cys]-Asp-Lys(NODAGA)-NH2] (Hexanoyl-CPPTQF[X2]DK(X11)-NH2; thioether 1-7)
< 100 nM	< 100 nM			CCCC[C@H](NC(=O)CCC(=O)NCCCOCCOCCOCCCNC(=O)CN1CCN(CC(=O)O)CCN(CC(=O)O)CCN(CC(=O)O)CC1)C(=O)N[C@H]1CSC2=C(SC[C@@H](C(=O)NCCC(=O)O)NC(=O)[C@H](Cc3ccccc3)CC(=O)[C@H](CCC(N)=O)NC(=O)[C@H]([C@@H](C)O)NC(=O)[C@@H]3CCCN3C(=O)[C@@H]3CCCN3C1=O)C(=O)NC2=O [Compound 2009, DOTA-Ttds-Nle-[Cys(mli)-Pro-Pro-Thr-Gln-Phe-Cys]-Bal-OH]
< 100 nM	< 100 nM			CCCC[C@H](NC(=O)CCC(=O)NCCCOCCOCCOCCCNC(=O)CN1CCN(CC(=O)O)CCN(CC(=O)O)CCN(CC(=O)O)CC1)C(=O)N[C@H]1CSSC[C@@H](C(=O)O)NC(=O)[C@H](Cc2ccccc2)NC(=O)[C@H](CCC(N)=O)NC(=O)[C@H]([C@@H](C)O)NC(=O)[C@@H]2CCCN2C(=O)[C@@H]2CCCN2C1=O [Compound 1009, DOTA-Ttds-Nle-[Cys-Pro-Pro-Thr-Gln-Phe-Cys]-OH]
< 100 nM	< 100 nM			CSCC[C@H](N)C(=O)N[C@H]1CSSC[C@@H](C(=O)N[C@@H](CC(=O)O)C(=O)N[C@@H](Cc2c[nH]cn2)C(=O)N[C@@H](Cc2ccccc2)C(=O)N[C@@H](CCCNC(=N)N)C(=O)N[C@@H](CC(=O)O)C(N)=O)NC(=O)[C@H](Cc2ccccc2)NC(=O)[C@H](CCC(=O)O)NC(=O)[C@H]([C@@H](C)O)NC(=O)[C@@H]2CCCN2C(=O)[C@@H]2CCCN2C1=O [Compound 1001, H-Met-[Cys-Pro-Pro-Thr-Glu-Phe-Cys]-Asp-His-Phe-Arg-Asp-NH2] (HELM PEPTIDE1{M.C.P.P.T.E.F.C.D.H.F.R.D.[am]}$PEPTIDE1,PEPTIDE1,2:R3-8:R3$$$V2.0)
< 100 nM	< 100 nM			CCCCCC(=O)N[C@H]1CSSC[C@@H](C(=O)N[C@@H](CCCCNC(=O)CN2CCN(CC(=O)O)CCN(CC(=O)O)CCN(CC(=O)O)CC2)CC(=O)O)NC(=O)[C@H](Cc2ccccc2)NC(=O)[C@H](CCC(N)=O)NC(=O)[C@H]([C@@H](C)O)NC(=O)[C@@H]2CCCN2C(=O)[C@@H]2CCCN2C1=O [Compound 1011, Hex-[Cys-Pro-Pro-Thr-Gln-Phe-Cys]-Bhk(DOTA)-OH]

Structure (SMILES)	IC50 [1, 2]	IC50 (Recombinant human FAP; [3])	IC50 ([1]; read-out: pIC50 (highest activity categories, FACS binding) (converted))	IC50 (Recombinant human FAP; read-out: pIC50 (highest activity categories, FAP activity) (converted))
CCCC[C@H](NC(=O)CN1CCN(CC(=O)O)CCN(CC(=O)O)CCN(CC(=O)O)CC1)C(=O)N[C@H]1CSSC[C@@H](C(=O)N[C@@H](CC(=O)O)C(N)=O)NC(=O)[C@H](Cc2ccccc2)NC(=O)[C@H](CCC(=O)O)NC(=O)[C@H]([C@@H](C)O)NC(=O)[C@@H]2CCCN2C(=O)[C@@H]2CCCN2C1=O [Compound 1004, DOTA-Nle-[Cys-Pro-Pro-Thr-Glu-Phe-Cys]-Asp-NHd2] (HELM PEPTIDE1{[O=C(O)CN1CCN(CC(=O)O)CCN(CC(=O)[*:2])CCN(CC(=O)O)CC1].[Nle].C.P.P.T.E.F.C.D.[am]}$PEPTIDE1,PEPTIDE1,3:R3-9:R3$$$V2.0)	< 100 nM	< 100 nM		
CCCCCC(=O)N[C@H]1CSC2=C(SC[C@@H](C(=O)N[C@@H](CC(=O)O)C(N)=O)NC(=O)[C@H](Cc3ccccc3)NC(=O)[C@H](CCC(=O)O)NC(=O)[C@H]([C@@H](C)O)NC(=O)[C@@H]3CCCN3C(=O)[C@@H]3CCCN3C1=O)C(=O)N(CCCOCCOCCOCCCNC(=O)CN1CCN(CC(=O)O)CCN(CC(=O)O)CCN(CC(=O)O)CC1)C2=O [Compound 2020, Hex-[Cys(mli(DOTA-Ttd))-Pro-Pro-Thr-Glu-Phe-Cys]-Asp-NH2] (HELM PEPTIDE1{[CCCCCC(=O)[*:2]].C.P.P.T.E.F.C.D.[am]}|CHEM1{[O=C(O)CN1CCN(CC(=O)O)CCN(CC(=O)NCCCOCCOCCOCCCN2C(=O)C([*:1])=C([*:2])C2=O)CCN(CC(=O)O)CC1]}$PEPTIDE1,CHEM1,2:R3-1:R1|PEPTIDE1,CHEM1,8:R3-1:R2$$$V2.0)	< 100 nM	< 100 nM		
